How the values were obtained:
Sprague–Dawley rats [1] = assay: Pre-pulse inhibition (PPI) of acoustic startle in rats; assay type: in vivo, rat; details: higher potency
Method: Male Sprague–Dawley rats from Harlan Industries (Indianapolis, IN, USA; initial weight 250–275 g) were housed in pairs under a 12-h reverse light/dark cycle (lights off at 0700 h). Use of a reversed light/dark cycle allows behavioral testing to be conducted during the awake phase of the light/dark cycle. Food and water were available ad libitum. Animals were acclimatized for approximately 1 wk after arrival prior to behavioral testing and maintained in Association for Assessment and Accreditation of Laboratory Animal Care (AAALAC)-approved facilities that meet all federal and state guidelines. Procedures were approved by the University of California San Diego institutional animal care and use committee. Principles of laboratory animal care were followed.
DPH hydrochloride and 2-MXP hydrochloride were dissolved in water containing 5% Tween-80 and administered subcutaneously, 10-min prior to the start of the startle test session. The injection volume was 1 ml/kg.
Eight startle chambers (SR-LAB system, San Diego Instruments, San Diego, CA, USA) were used to measure startle reactivity in rats. The startle test chambers were sound-attenuated, lighted, and ventilated enclosures containing a clear nonrestrictive cylindrical Plexiglas stabilimeter, 8.2 cm in diameter. A high-frequency loudspeaker mounted 24 cm above the Plexiglas cylinder produced all acoustic stimuli. The peak and average amplitudes of the startle response were detected by a piezoelectric accelerometer. At the onset of the startling stimulus, 100 1-ms readings were recorded, and the average amplitude was used to determine the magnitude of the startle response (measured in arbitrary units).
Acoustic startle test sessions consisted of startle trials (pulse-alone) and prepulse trials (prepulse + pulse). The pulse-alone trial consisted of a 40-ms 120-dB pulse of broadband white noise. Prepulse + pulse trials consisted of a 20-ms acoustic prepulse, an 80-ms delay, and then a 40-ms 120-dB startle pulse (100-ms onset–onset). There was an average of 15 s (range = 6–22 s) between trials. During each inter-trial interval, the movements of the animals were recorded once to measure response when no stimulus was present (data not shown). Each startle session began with a 5 min acclimation period to a 65-dB broadband noise that was present continuously throughout the session. One week after arrival, animals were tested in a brief baseline startle/PPI session to create treatment groups matched for levels of startle and PPI. The startle test session contained 12 pulse-alone trials and 36 prepulse + pulse trials (12 prepulses each of 68-, 71-, and 77-dB [equivalent to 3-, 6-, and 12-dB above background]) presented in a pseudo-randomized order. Six pulse-alone trials were presented at the beginning and the end of the test session but were not used in the calculation of PPI values. Raw data for all PPI experiments are provided as supporting information (S5 File).
The amount of PPI was calculated as a percentage score for each prepulse + pulse trial type: %PPI = 100−{[(startle response for prepulse + pulse trial)/(startle response for pulse-alone trial)] × 100}. Startle magnitude was calculated as the average response to all of the pulse-alone trials. PPI data were analyzed with two-factor analysis of variance (ANOVA) with treatment as the between-subjects factor and trial type (prepulse intensity) as a repeated measure. For experiments in which there was no significant interaction between drug and prepulse intensity, PPI data were collapsed across prepulse intensity and average PPI was used as the main dependent measure. ED50 values were calculated using nonlinear regression. Startle magnitude data were analyzed with one-factor ANOVA. Post-hoc analyses were performed using Tukey’s studentized range method. The alpha level was set at 0.05.

[2] = system: PCP site within the NMDAR channel; details: [3H]-(+)-MK-801, rat forebrain, cited from earlier work
Sprague–Dawley rats [3] = details: rat; cited from earlier work
[4] = system: PCP site within the NMDAR channel; assay: NMDAR binding, [3H]-MK-801 displacement in rat forebrain homogenate; details: lower affinity;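 further: IC50 by nonlinear regression of percent specific binding versus log concentration, Ki from IC50 via Cheng-Prusoff, raw counts in CPM, duplicates repeated at least three times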
Method: The reaction was terminated by vacuum filtration using a 24 well cell harvester (Brandel, Gaithersburg, MD) over presoaked GF/B glass fiber filters (Brandel, Gaithersburg, MD). Filters were washed with room temperature assay buffer (3 x 5 mL). […] IC50 values were determined in Graphpad Prism 5.0 using non-linear regression with log-concentration plotted against percent specific binding. […] Ki values were calculated using the equation of Cheng and Prusoff [24]. […] Protein concentration was determined via the Bradford method using Coomassie protein assay reagent (Sigma, USA) [25] with rat albumin (Sigma, USA) as standard. Experiments were performed in duplicate and repeated a minimum of three times.

SMILES: c1ccc(C2(N3CCCCC3)CCCCC2)cc1 [PCP, Phencyclidine]
- potency to alter PPI relative to DPH (Sprague–Dawley rats [1]): 10 fold
- IC50 [2]: 0.091 ± 0.0013 µM
- Ki ([2]; read-out: Ki ± SEM): 0.0579 ± 0.0008 µM
- ED50 for disruption of PPI (Sprague–Dawley rats [3]): 3.15 µmol/kg
- [3H]MK-801 displacement affinity relative to DPH [4]: 3 fold

— PMC4912077 (PLoS ONE, 2016)
